The structures appear in SMILES notation. Activity calls are given as the source filed them.

A short description of experiment [1]: luciferase reporter signal suppression in cells – H4 neuroglioma cells, luminescence, dose response (AID 1990). Format: functional, cell-based.
Experiment [2] has as its target Sphingosine 1-phosphate receptor 2 (Homo sapiens, UniProt O95136). Nature of the experiment: Dose Response Cell Based Assay for Antagonists of the S1P2 Receptor. [Related pubchem assays: 856, 736 ]. Format: functional.
In the next experiment the test system is HeLa. Briefly: Cytotoxicity counterscreen assay for transcriptional activators of heat shock protein 70 (Hsp70). [Related pubchem assays: 1203, 1252 ]. The experiment is classed as functional. The settings on record: Homo sapiens.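 Also: cells exposed to compound for 16 hours before readout.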
The nature of experiment [3]: Luminescence Cell-Based Dose Confirmation HTS to Identify Inhibitors of Platelet Dense Granule Release. [Related pubchem assays: 1663 (Primary HTS), 1678 (Summary of Project)]. The experiment is classed as functional.
Experiment [4] is described as follows: Luminescence-based dose response cell-based high throughput screening assay for cytotoxic compounds using the IEC-6 intestinal epithelial cell line. [Related pubchem assays: 1858 (Summary AID.), 1825 (Counterscreen.), 1907 (Confirmation screen.)]. Format: functional.
The target of experiment [5] is Type-1 angiotensin II receptor (Homo sapiens, UniProt P30556). Briefly: antagonism of angiotensin II type 1 receptor – cell-based, uHTS hits, selectivity assay for APJ receptor antagonist project, dose response (AID 463214).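 Also: antagonist potency against angiotensin II stimulated AT1 response.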 The experiment is classed as functional.
Experiment [6] concerns the target T1, Kappa-type opioid receptor (Homo sapiens, UniProt P41145). Format: functional.
Experiment [7] addresses T1, Kappa-type opioid receptor. Format: functional. This is another data set of the same source.
Another experiment concerns CHO. Briefly: CHO cell viability loss, potency – luminescence, cytotoxicity control for TLR9-MyD88 binding inhibitor project, dose response (AID 588339).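 Also: CHO cells stably coexpressing TLR9 and MyD88 fusions from primary screen; compound exposure lasted 48 hours before viability readout.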 Format: functional, cell-based, hamster. The conditions noted are these: Cricetulus griseus.
The target of experiment [8] is T2, Heat shock protein HSP 90-alpha (Homo sapiens, UniProt P07900). Format: functional, organism-based.
A further experiment concerns the target Beta Lactamase (Pseudomonas aeruginosa, UniProt Q932Y6). Briefly: BLA reporter interference, concentration series – BLA reporter cells, FRET fluorescence, artefact control for TLR9-MyD88 binding inhibitor project, dose response (AID 588341).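 Also: cell based assay in CHO-K1 cells stably expressing beta-lactamase.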 Format: cell-based.
The nature of experiment [9]: reduction of Shn3 3'UTR-driven luciferase in osteoblasts – cell-based, Clone20 osteoblasts, firefly luciferase, cherry-picked, dose response (AID 624132).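 Also: firefly luciferase luminescence from reporter carrying the Shn3 3'UTR in osteoblasts.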 Format: functional.
For experiment [10], the target named is Photoreceptor-specific nuclear receptor (Homo sapiens, UniProt Q9Y5X4). Format: functional, cell-based.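 Also: CHO-S cells with Gal4-NCOR and VP16-NR2E3 two-hybrid luciferase reporter.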
Experiment [11] is described as follows: viability loss in HeLa cells – cytotoxicity control for MgcRacGAP inhibitor project, dose response (AID 624300). Format: functional.
Experiment [12] concerns the target T3, Sentrin-specific protease 8 (Homo sapiens, UniProt Q96LD8).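 Also: kinetic enzyme assay of SENP8 cleaving a Nedd8 protein substrate, dose-response confirmation of screening hits.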
T3 sequence (Q96LD8 whole entry): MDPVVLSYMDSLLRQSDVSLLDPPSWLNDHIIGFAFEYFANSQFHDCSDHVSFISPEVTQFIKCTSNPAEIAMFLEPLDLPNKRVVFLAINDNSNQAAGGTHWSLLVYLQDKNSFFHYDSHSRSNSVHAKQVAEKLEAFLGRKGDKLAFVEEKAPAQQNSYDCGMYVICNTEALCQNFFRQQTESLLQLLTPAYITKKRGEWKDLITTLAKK
The experiment is classed as functional.

For experiment [13], the target named is T4, Zinc finger protein mex-5 (Caenorhabditis elegans, UniProt Q9XUB2).
T4 sequence (Q9XUB2 whole entry): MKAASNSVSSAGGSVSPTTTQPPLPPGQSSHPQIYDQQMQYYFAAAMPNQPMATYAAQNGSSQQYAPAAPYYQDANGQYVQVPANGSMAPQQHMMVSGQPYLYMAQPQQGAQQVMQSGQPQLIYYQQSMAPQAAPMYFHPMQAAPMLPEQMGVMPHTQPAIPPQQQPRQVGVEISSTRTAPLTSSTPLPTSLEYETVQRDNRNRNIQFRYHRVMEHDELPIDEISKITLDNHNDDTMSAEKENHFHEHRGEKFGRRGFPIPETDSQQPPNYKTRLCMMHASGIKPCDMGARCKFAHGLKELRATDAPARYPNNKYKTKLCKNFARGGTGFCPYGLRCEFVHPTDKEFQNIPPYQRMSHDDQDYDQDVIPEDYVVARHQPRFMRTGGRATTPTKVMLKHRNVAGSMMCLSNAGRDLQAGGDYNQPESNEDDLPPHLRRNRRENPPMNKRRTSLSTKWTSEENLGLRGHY
Nature of the experiment: potency of MEX-5 RNA-binding blockers – biochemical, C. elegans, fluorescence polarization, dose response (AID 1960).

In experiment [14] the target is T2, Heat shock protein HSP 90-alpha. Nature of the experiment: Luminescence-based dose response biochemical high throughput screening assay for inhibitors of the Heat Shock Protein 90 (HSP90). [Related pubchem assays: 1831 (Summary AID.), 1846 (Confirmation screen.), 1789 (Primary screen.)].
Another experiment addresses Hexokinase HKDC1 (Homo sapiens, UniProt Q2TB90). Briefly: inhibition of HKDC1 glucose phosphorylation – biochemical, W721R variant, dose response (AID 504729). Format: functional.
In experiment [15] the target is T5, Mitochondrial peptide methionine sulfoxide reductase (Bos taurus, UniProt P54149).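 Also: absorbance read-out, biochemical high-throughput dose-response screen for MsrA inhibitors, confirmatory; recombinant bovine MsrA coupled to E. coli TrxB with NADPH and selenocystamine; potency is for inhibitors of MsrA activity on DMSO substrate.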
T5 sequence (P54149 whole entry): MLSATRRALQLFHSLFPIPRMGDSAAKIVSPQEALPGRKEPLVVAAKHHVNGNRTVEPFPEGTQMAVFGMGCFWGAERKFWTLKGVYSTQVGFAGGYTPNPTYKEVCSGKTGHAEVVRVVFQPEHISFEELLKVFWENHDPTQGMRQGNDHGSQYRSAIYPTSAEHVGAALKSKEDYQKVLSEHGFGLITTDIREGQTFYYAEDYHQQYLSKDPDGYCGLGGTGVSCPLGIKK
Format: functional.

T1 sequence (P41145 whole entry): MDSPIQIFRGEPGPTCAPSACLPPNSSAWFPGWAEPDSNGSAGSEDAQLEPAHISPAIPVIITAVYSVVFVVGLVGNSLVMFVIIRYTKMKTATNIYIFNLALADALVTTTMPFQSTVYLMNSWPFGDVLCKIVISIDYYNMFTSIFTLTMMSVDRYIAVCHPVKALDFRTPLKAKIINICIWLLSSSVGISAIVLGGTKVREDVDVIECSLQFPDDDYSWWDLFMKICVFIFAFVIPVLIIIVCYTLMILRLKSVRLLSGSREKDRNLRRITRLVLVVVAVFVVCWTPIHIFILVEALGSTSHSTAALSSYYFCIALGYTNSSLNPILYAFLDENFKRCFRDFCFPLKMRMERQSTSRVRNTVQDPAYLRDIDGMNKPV
Chain of Sphingosine 1-phosphate receptor 2 (O95136 whole entry): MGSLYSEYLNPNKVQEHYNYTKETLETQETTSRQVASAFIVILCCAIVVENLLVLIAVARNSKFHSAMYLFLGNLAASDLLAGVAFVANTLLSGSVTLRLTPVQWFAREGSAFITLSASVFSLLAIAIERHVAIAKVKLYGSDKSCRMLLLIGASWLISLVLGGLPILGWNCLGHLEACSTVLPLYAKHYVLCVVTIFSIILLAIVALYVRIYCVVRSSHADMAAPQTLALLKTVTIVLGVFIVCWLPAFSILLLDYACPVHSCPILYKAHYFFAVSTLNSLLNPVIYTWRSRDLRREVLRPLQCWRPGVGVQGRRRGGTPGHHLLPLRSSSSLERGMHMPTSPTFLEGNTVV
Chain of Hexokinase HKDC1 (Q2TB90 whole entry): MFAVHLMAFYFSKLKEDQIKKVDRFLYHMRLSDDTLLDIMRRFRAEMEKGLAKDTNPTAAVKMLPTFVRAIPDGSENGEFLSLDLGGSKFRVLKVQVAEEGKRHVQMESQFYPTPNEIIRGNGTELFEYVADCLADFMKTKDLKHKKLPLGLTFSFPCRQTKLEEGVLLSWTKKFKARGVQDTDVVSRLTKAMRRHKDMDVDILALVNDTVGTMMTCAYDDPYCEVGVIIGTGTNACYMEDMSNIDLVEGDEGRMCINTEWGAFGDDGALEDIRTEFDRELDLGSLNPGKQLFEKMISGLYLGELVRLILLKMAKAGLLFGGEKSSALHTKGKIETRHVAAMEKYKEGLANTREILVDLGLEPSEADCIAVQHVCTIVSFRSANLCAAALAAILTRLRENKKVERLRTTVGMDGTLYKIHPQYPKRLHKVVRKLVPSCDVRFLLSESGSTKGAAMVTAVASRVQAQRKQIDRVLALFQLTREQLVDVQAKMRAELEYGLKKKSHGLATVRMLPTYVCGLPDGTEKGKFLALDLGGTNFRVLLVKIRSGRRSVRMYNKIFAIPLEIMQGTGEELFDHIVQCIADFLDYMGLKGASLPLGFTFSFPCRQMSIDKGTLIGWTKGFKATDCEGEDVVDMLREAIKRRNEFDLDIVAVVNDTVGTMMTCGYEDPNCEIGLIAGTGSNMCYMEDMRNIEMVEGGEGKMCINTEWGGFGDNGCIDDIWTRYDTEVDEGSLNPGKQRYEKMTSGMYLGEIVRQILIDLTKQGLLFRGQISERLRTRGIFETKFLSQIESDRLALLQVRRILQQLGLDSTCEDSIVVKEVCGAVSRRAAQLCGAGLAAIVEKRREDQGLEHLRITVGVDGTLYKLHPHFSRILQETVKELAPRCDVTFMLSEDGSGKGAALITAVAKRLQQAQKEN
Chain of Type-1 angiotensin II receptor (P30556 whole entry): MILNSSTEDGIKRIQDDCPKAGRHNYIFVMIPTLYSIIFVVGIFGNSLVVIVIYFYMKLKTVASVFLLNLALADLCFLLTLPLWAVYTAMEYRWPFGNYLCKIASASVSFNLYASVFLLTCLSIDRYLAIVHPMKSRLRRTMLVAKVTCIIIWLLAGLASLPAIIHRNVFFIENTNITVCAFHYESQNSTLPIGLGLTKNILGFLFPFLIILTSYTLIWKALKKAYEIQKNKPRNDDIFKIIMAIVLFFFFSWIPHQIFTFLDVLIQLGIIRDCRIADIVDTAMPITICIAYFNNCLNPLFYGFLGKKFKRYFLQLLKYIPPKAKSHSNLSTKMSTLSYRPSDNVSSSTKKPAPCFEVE
Chain of Beta Lactamase (Q932Y6 whole entry): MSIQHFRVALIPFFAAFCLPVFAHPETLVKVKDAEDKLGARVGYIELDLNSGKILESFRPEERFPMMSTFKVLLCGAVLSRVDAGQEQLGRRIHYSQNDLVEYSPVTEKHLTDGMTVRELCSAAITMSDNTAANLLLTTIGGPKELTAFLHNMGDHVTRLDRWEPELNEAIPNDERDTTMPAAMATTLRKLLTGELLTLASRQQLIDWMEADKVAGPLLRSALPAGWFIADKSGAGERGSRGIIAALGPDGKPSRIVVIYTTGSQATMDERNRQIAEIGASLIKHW
Chain of Photoreceptor-specific nuclear receptor (Q9Y5X4 whole entry, the tested form may be a part): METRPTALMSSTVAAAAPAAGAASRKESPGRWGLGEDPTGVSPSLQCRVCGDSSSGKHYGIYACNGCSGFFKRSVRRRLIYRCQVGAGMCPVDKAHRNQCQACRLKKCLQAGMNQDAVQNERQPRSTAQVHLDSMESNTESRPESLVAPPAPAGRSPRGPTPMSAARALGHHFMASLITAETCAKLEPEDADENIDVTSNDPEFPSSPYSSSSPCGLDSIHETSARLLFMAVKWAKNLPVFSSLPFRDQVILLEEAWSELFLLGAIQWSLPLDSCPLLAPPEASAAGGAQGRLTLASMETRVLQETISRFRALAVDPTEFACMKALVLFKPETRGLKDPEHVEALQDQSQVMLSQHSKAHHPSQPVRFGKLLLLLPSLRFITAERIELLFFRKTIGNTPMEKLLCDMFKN

In the case of `COc1ccc(NC(=O)/C(Cl)=C(/Cl)[S+]([O-])Cc2ccccc2)cn1` (centres undefined), the EC50 in experiment [1] is 5.93 µM (active); in experiment [3], 6.34 µM (active). Besides, the IC50 in experiment [2] was 0.942 µM (active); in experiment [4] it was 1.27 µM (active); in experiment [5], 3.93 µM (active); in experiment [6], 7.1 µM (active); in experiment [7] it was 7.62 µM; in the experiment with CHO it was 0.453 µM (active). For the same compound, the IC50 at Beta Lactamase is 16 µM (inactive); in experiment [10], 0.92 µM (active). The CC50 with HeLa is 1.75 µM (active); in [11] it was 24.1 µM (active). The AC50 in experiment [8] was 2 µM (active); in experiment [9] it was < 0.26 µM (active).
Consider `Nc1ccc(N2CCCCC2)c2nonc12`, for which the IC50 in experiment [12] is 3.28 µM (active).
For `Cc1ccc(S(=O)(=O)/N=C2\C=C(Nc3cccc(C(=O)O)c3)C(=O)c3ccccc32)c(C)c1`, the EC50 in experiment [13] is 31.7 µM (active). Besides, the IC50 is 0.919 µM (active) in experiment [14], 8.6 µM (active) on Hexokinase HKDC1 and 74.5 µM (inactive) in experiment [15].

Source of the values: ChEMBL document CHEMBL1201862, “PubChem BioAssay data set” (2004).
